Target: T1, FKBP51FK1 (Homo sapiens, UniProt Q13451)
T1 construct: FKBP51FK1
T1 sequence (Q13451 42-130 limits assumed): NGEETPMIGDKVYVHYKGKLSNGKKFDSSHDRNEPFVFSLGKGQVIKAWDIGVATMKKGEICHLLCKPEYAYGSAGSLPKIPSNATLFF
Assay: Binding affinities of exemplary compounds to FKBP51
Description: Binding to FKBP51 is an important prerequisite in order to allow degradation of FKBP51. Thus, the binding affinities of the newly synthesized molecules (table 1) were tested.

| Ki | SMILES |
| --- | --- |
| 22 ± 6 nM | COc1ccc(CC[C@@H](OC(=O)[C@@H]2CCCCN2C(=O)[C@H](c2cc(OC)c(OC)c(OC)c2)C2CCCCC2)c2cccc(OCc3cn(CCOCCOCCOCC(=O)Nc4cccc5c4C(=O)N(C4CCC(=O)NC4=O)C5=O)nn3)c2)cc1OC (stereo partly drawn) [MTQ206, (2S)-(1R)-3-(3,4-Dimethoxyphenyl)-1-(3-((1-(2-(2-(2-(2-((2-(2,6-dioxopiperidin-3-yl)-1,3-dioxoisoindolin-4-yl)amino)-2-oxoethoxy)ethoxy)ethoxy)ethyl)-1H-1,2,3-triazol-4-yl)methoxy)phenyl)propyl 1-((S)-2-cyclohexyl-2-(3,4,5-trimethoxyphenyl)acetyl)piperidine-2-carboxylate] |
| 25 ± 6 nM | COc1ccc(CC[C@H](OC(=O)[C@H]2CCCCN2C(=O)[C@H](c2cc(OC)c(OC)c(OC)c2)C2CCCCC2)c2cccc(OCc3cn(CCOCC(=O)N[C@H](C(=O)N4C[C@H](O)C[C@H]4C(=O)NCc4ccc(-c5scnc5C)cc4)C(C)(C)C)nn3)c2)cc1OC (stereo in doubt) [MTQ199, (S)-(R)-3-(3,4-Dimethoxyphenyl)-1-(3-((1-(2-(2-(((S)-1-((2S,4R)-4-hydroxy-2-((4-(4-methylthiazol-5-yl)benzyl)carbamoyl)pyrrolidin-1-yl)-3,3-dimethyl-1-oxobutan-2-yl)amino)-2-oxoethoxy)ethyl)-1H-1,2,3-triazol-4-yl)methoxy)phenyl)propyl 1-((S)-2-cyclohexyl-2-(3,4,5-trimethoxyphenyl)acetyl)piperidine-2-carboxylate] |
| 32 ± 7 nM | C#CCOc1cccc([C@H](CCc2ccc(OC)c(OC)c2)OC(=O)[C@H]2CCCCN2C(=O)[C@H](c2cc(OC)c(OC)c(OC)c2)C2CCCCC2)c1 (stereo in doubt) [Molecule (9), (S)-(R)-3-(3,4-Dimethoxyphenyl)-1-(3-(prop-2-yn-1-yloxy)phenyl)propyl 1-((S)-2-cyclohexyl-2-(3,4,5-trimethoxyphenyl)acetyl)piperidine-2-carboxylate] |
| 16 ± 5 nM | COc1ccc(CC[C@@H](OC(=O)[C@@H]2CCCCN2C(=O)[C@H](c2cc(OC)c(OC)c(OC)c2)C2CCCCC2)c2cccc(OCc3cn(CCOCCOCC(=O)Nc4cccc5c4C(=O)N(C4CCC(=O)NC4=O)C5=O)nn3)c2)cc1OC (stereo partly drawn) [MTQ205, (2S)-(1R)-3-(3,4-Dimethoxyphenyl)-1-(3-((1-(2-(2-(2-((2-(2,6-dioxopiperidin-3-yl)-1,3-dioxoisoindolin-4-yl)amino)-2-oxoethoxy)ethoxy)ethyl)-1H-1,2,3-triazol-4-yl)methoxy)phenyl)propyl 1-((S)-2-cyclohexyl-2-(3,4,5-trimethoxyphenyl)acetyl)piperidine-2-carboxylate] |
| 60 ± 16 nM | COc1cccc([C@H](CCc2ccc(OCc3cn(CCOCCOCC(=O)N[C@H](C(=O)N4C[C@H](O)C[C@H]4C(=O)NCc4ccc(-c5scnc5C)cc4)C(C)(C)C)nn3)c(OC)c2)OC(=O)[C@H]2CCCCN2C(=O)[C@H](c2cc(OC)c(OC)c(OC)c2)C2CCCCC2)c1 [MTQ329, (S)-(R)-3-(4-((1-(2-(2-(2-(((S)-1-((2S,4R)-4-Hydroxy-2-((4-(4-methylthiazol-5-yl)benzyl)carbamoyl)pyrrolidin-1-yl)-3,3-dimethyl-1-oxobutan-2-yl)amino)-2-oxoethoxy)ethoxy)ethyl)-1H-1,2,3-triazol-4-yl)methoxy)-3-methoxyphenyl)-1-(3-methoxyphenyl)propyl 1-((S)-2-cyclohexyl-2-(3,4,5-trimethoxyphenyl)acetyl)piperidine-2-carboxylate] |
| 86 ± 26 nM | COc1cccc([C@H](CCc2ccc(OCc3cn(CCOCCOCCOCC(=O)N[C@H](C(=O)N4C[C@H](O)C[C@H]4C(=O)NCc4ccc(-c5scnc5C)cc4)C(C)(C)C)nn3)c(OC)c2)OC(=O)[C@H]2CCCCN2C(=O)[C@H](c2cc(OC)c(OC)c(OC)c2)C2CCCCC2)c1 [MTQ330, (S)-(R)-3-(4-((1-((S)-13-((2S,4R)-4-Hydroxy-2-((4-(4-methylthiazol-5-yl)benzyl)carbamoyl)pyrrolidine-1-carbonyl)-14,14-dimethyl-11-oxo-3,6,9-trioxa-12-azapentadecyl)-1H-1,2,3-triazol-4-yl)methoxy)-3-methoxyphenyl)-1-(3-methoxyphenyl)propyl 1-((S)-2-cyclohexyl-2-(3,4,5-trimethoxyphenyl)acetyl)piperidine-2-carboxylate] |

| SMILES | Ki |
| --- | --- |
| COc1cccc([C@@H](CCc2ccc(OCc3cn(CCOCCOCCOCCOCC(=O)N[C@H](C(=O)N4C[C@H](O)C[C@H]4C(=O)NCc4ccc(-c5scnc5C)cc4)C(C)(C)C)nn3)c(OC)c2)OC(=O)[C@@H]2CCCCN2C(=O)[C@H](c2cc(OC)c(OC)c(OC)c2)C2CCCCC2)c1 [MTQ331, (S)-(R)-3-(4-((1-((5)-16-((25,4R)-4-Hydroxy-2-((4-(4-methylthiazol-5-yl)benzyl)carbamoyl)pyrrolidine-l-carbonyl)-17,17-dimethyl-14-oxo-3,6,9,12-tetraoxa-15-azaoctadecyl)-1H-1,2,3-triazol-4-yl)methoxy)-3-methoxyphenyl)-1-(3-methoxyphenyl)propyl 1-((S)-2-cyclohexyl-2-(3,4,5-trimethoxyphenyl)acetyl)piperidine-2-carboxylate] | 59 ± 22 nM |

Source: EP3875456A1, “HETERO-BIFUNCTIONAL PROTEOLYSIS-TARGETING CHIMERAS (PROTACS) FOR THE SELECTIVE DEGRADATION OF FK506-BINDING PROTEINS (FKBPS)” (Technische Universität Darmstadt, priority 2020, dated 2021)
